Values of other authors as cited in patent US20090233891A1, “Pharmaceutical lotion comprising fluticasone propionate” (GLENMARK GENERICS LTD., priority 2008, published 2009).

## CCC(=O)O[C@]1(C(=O)SCF)[C@H](C)C[C@H]2[C@@H]3C[C@H](F)C4=CC(=O)C=C[C@]4(C)[C@@]3(F)[C@@H](O)C[C@@]21C [Fluticasone propionate, S-(fluoromethyl) 6a, 9-difluoro-11β, 17-dihydroxy-16a-methyl-3-oxoandrosta-1,4-diene-17β-carbothioate, 17-propionate]
95% ethanol
  solubility in 95% ethanol: slightly soluble
Dimethyl sulfoxide
  solubility in dimethyl sulfoxide: freely soluble
dimethylformamide
  solubility in dimethylformamide: freely soluble
methanol
  solubility in methanol: slightly soluble
water
  solubility in water: practically insoluble
